The record followed here is patent US11723897B2, “Fatty acids as anti-inflammatory agents” (University of Pittsburgh—Of the Commonwealth System of …, priority 2009, dated 2023).

Entries after “also recorded” stand apart in the source; their conditions may differ. Like-named read-outs stand apart in the source and are kept apart here.

The subject of test [1] is EFAD formation in RAW264.7 cells. Kind of test: Inhibitor study: EFAD formation in RAW264.7 cells activated with Kdo2 and IFNγ. Type of test: cell-based, murine. The settings on record: for Effect of inhibitor on EFAD-1 formation / Effect of inhibitor on EFAD-2 formation / Effect of inhibitor on EFAD-3 formation / Effect of inhibitor on EFAD-4 formation / Effect of inhibitor on EFAD-6 formation / Effect of inhibitor on EFAD-5 formation: RAW264.7 + Kdo2 + IFNγ, ↓ decrease, ↑ increase, NE (not defined in patent).

The test system of test [2] is Nrf2-dependent anti-oxidant response pathway. Kind of test: Nrf2 nuclear accumulation and HO-1/Nqo1 expression (western blot) in RAW264.7 cells. The settings on record: for Nrf2 nuclear accumulation: nuclear extracts, 1 h after treatment; for Expression of HO-1 and Nqo1: western blot, 18 h after treatment. Type of test: cell-based, murine. On the technique in general: In western blotting, separated proteins are transferred to a membrane and probed.

For test [3], the system named is RAW264.7 cells. Kind of test: Cytokine levels (IL-6, MCP-1, IL-10) in Kdo2+IFNγ-activated RAW264.7 cells. Format: cell-based, murine.
Test [4] relates to inducible nitric oxide synthase (iNOS). Kind of test: Nitrite, iNOS and Cox-2 levels in Kdo2+IFNγ-activated RAW264.7 cells. Format: cell-based, murine. The settings on record: for iNOS induction and accumulation of nitrite in the cell media: RAW264.7. Here is the method:
FIG. 11a-11e illustrates modulation of anti-oxidant and inflammatory responses by 17-oxoDHA and 17-oxoDPA. RAW264.7 cells were treated with increasing concentration of 17-oxoDHA and 17-oxoDPA. (a) Cells were harvested 1 h after treatment and Nrf2 levels were quantified in nuclear extracts. (b) Cells were harvested 18 h after treatment and HO-1 and Nqo1 (upper band) levels were measured by western blot. (c, d) RAW264.7 cells were treated with increasing concentration of 17-oxoDHA and 17-oxoDPA for 6 h and Kdo2+IFNγ were added. Samples were collected at 12 h. IL-6, MCP-1 and IL-10 levels were measured in the cell media by Quantikine ELISA Kit (R&D Systems) and normalized by the total protein content (c); Nitrite levels were measured in the cell media and normalized by the total protein content and iNOS and Cox-2 levels were measured in total cell lysates (d); (e) PPARγ beta-lactamase reporter assays were performed for Rosiglitazone, 17-OxoDPA, 17-OxoDHA, 15d-PGJ2, 17-hydroxyDHA, DPA, and DHA with concentrations ranging from 0.5-10,000 nM.
For activation experiments RAW 264.7 cells were seeded, incubated overnight, and treated at approximately 80% confluence with the indicated compounds 47. Non-activated controls were treated with vehicle alone. During activation, cells were maintained in an activation medium (SMEM) of Minimum Essential Medium Eagle (Cellgro, 17-305)+2% FBS supplemented with L-glutamine (584 mg/L), Na-pyruvate (110 mg/L) and Hepes (3.57 g/L, pH 7.4). For inhibition studies, inhibitors were added to the medium at the time of activation and MTT assays were used to confirm cell viability. Cells were harvested 20 h post activation (unless otherwise indicated) in 50 mM phosphate buffer (pH 7.4) and snap frozen in liquid N2. THP-1 cells were differentiated with PMA (86 nM) for 16 h, activated with IFNγ (200 U/ml) and Kdo2 lipid A (0.5 μg/ml) in RPMI+2% FBS and harvested 40 h after differentiation. For treatment with EFADs alone, 17-oxoDHA and 17-oxoDPA were added to cell culture media at the indicated concentrations and for the indicated time period. For treatment with EFADs coupled with pro-inflammatory stimulation, addition of 17-oxoDHA and 17-oxoDPA was followed by addition of Kdo2 and IFNγ at 6 h.
Protein concentrations of samples were measured by BCA assay (Pierce). The following primary antibodies were used: Nrf2 (Santa Cruz, sc-722), HO-1 (Assay Design, SPA-896), Nqo1 (Abcam, ab34173), Cox-2 (Santa Cruz, sc-1745), iNOS (BD Transduction Lab, 610332), Lamin B1 (Abcam, ab16048). Actin (detected by Sigma A2066) was used as loading control. […]
Total nitrite and nitrate concentration was measured in cell culture media by Griess reaction using the Nitrate/Nitrite Colorimetric Assay Kit (Cayman Chemical).

The target of test [5] is rabbit GAPDH (Oryctolagus cuniculus, UniProt P46406). Kind of test: In vitro reaction of GAPDH with EFAD (mass spectrometry). Type of test: binding. The settings on record: Cys244, Cys149, His163, His328. Here is the method: FIG. 21a-21h illustrates the mass spectrometric analysis of an in vitro reaction of GAPDH with EFAD-2. Four residues were detected and confined as being targets for EfAD-2 in treated rabbit GAPDH. The peptides were alkylated as Cys244 (a), His163 (b), Cys149 (c) and His328 (d). Upper panels show EFAD-2 modified peptides and lower panels show spectra from corresponding native peptide.
To more specifically test the binding of EFADs to nucleophilic residues in proteins, we tested whether GAPDH was alkylated by EFADs. This enzyme is a well-characterized target for electrophiles and becomes easily inactivated by nitrosylation, oxidation or nucleophilic addition.

In test [6] the test system is RAW264.7 cells. In words: Fatty acid supplementation study in activated RAW264.7 cells. Type of test: cell-based, murine. The settings on record: 32 μM fatty acid for 3 days, then Kdo2 + IFNγ, 20 h. Here is the method: (a) A characteristic BME electrophile adduct fragmentation pattern. showing the major neutral loss of 78 amu (corresponding to the loss of BME) is represented by the enhanced product ion analysis of EFAD-2. (b) RAW264.7 cells were grown for 3 days in DMEM and 10% FBS supplemented with 32 μM of the indicated fatty acid. On the third day cells were activated with Kdo2 (0.5 μg/ml)) and IFNγ (200 U/ml) and EFAD-2 levels were quantified 20 h post activation. (c) Diagram of NaBH4 reduction of oxo-group to an alcohol group. (d) MRM scans monitoring for the mlz transition of 343.2/299.2 (oxo-DPA losing CO2) in RAW264.7 cell lysates purified for EFAD-2, non-treated or treated with NaBH4 (upper and lower panel); MRM scans monitoring for the mlz transition of [345.2/327.2 (hydroxy-DPA/neutral loss of H20) in RAW264.7 cell lysates purified for EFAD-2 and treated with NaBH4. (e) MS/MS fragmentation of EFAD-2 purified from activated RAW 264.7 cells and reduced with NaBH4.
FIG. 16a-16b illustrates that EFAD-1 and -3 are derived from the n-3 series of fatty acids. RAW264.7 cells were grown for 3 days in DMEM and 10% FBS supplemented with 32 μM of the indicated fatty acid. On the third day cells were activated with Kdo2 Lipid A (0.5 μg/ml) and IFNγ (200 U/ml) and EFAD-1 and -3 levels were quantified 20 h post activation.
Similarly, the EFAD of DHA (EFAD-1) and the EFAD of DTA (EFAD-3), were identified as mono-oxygenated derivatives of a 22-carbon fatty acid with a total of six and four double bonds, respectively. To elucidate the precursors in vivo, fatty acid supplementation studies were performed. […] Moreover, as illustrated in FIG. 4 EFAD-2 formation is COX-2 dependent.

Setting [7] is: Mus musculus, RAW264.7, genistein 25 μM, MAFP 25 μM, ibuprofen 100 μM, 20 h, read-out: Inhibition of EFAD production.
The mark [8] stands for this setting: MK886 500 nM, ETYA 25 μM, OKA 50 nM, indomethacin 25 μM, diclofenac 1 μM, NS-398 4 μM, 20 h.

rabbit GAPDH, sequence (P46406 whole entry): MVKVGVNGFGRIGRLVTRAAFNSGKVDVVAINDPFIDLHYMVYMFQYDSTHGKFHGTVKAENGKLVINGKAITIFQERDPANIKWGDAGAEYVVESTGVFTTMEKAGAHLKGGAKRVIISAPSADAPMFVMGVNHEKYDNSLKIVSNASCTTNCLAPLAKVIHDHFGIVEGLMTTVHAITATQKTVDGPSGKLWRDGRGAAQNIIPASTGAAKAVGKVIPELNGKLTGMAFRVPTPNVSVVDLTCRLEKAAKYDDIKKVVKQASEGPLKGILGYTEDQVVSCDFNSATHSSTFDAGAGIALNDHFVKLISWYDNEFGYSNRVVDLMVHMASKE

By inhibition is commonly meant the drop in the measured response relative to a control, in per cent. In the case of `CC(C)Cc1ccc(C(C)C(=O)O)cc1` (racemic) [Ibuprofen], in test [1] (setting [7]), the inhibition at 100 µM is > 80%. Moreover, in test [1] (20 h), the “Effect of inhibitor on EFAD-1 formation” value is recorded as “↓”, the “Effect of inhibitor on EFAD-2 formation” value was “↓”, the “Effect of inhibitor on EFAD-3 formation” value is listed as “↓” and the “Effect of inhibitor on EFAD-4 formation” value is reported as “↓”. In addition, the “Effect of inhibitor on EFAD-6 formation” value in test [1] (20 h) is on record as “↓”. In test [1] (20 h, listed as ibuprofen), the “Effect of inhibitor on EFAD-1 formation” value is recorded as “no significant effect”.
`CC/C=C\CC(=O)C=C/C=C\C/C=C\C/C=C\C/C=C\CCC(=O)O` [17-oxoDHA, 17-oxo-(4Z,7Z,10Z,13Z,15A,19Z)-docosa-4,7,10,13,15,19-hexanoic acid]: in test [2], the Nrf2 nuclear accumulation entry is “promoted dose-dependent; also recorded: promoting nuclear accumulation of Nrf2”; the “Expression of HO-1 and Nqo1” value is given as “promoted dose-dependent; also recorded: promoting”. Further, the “IFNγ and LPS-induced cytokine production” value in test [3] was “inhibited IFNγ and LPS-induced cytokine production in a dose-dependent manner”. In test [4] (20 μM), the “Reduction of nitrite production” value is reported as ~70%. For the same compound, the “iNOS induction and accumulation of nitrite in the cell media” value in test [4] is listed as “dose-dependent inhibition”. Further, the “Adduct formation with GAPDH residues” value in test [5] was “covalently bind Cys and His residues”.
Turning to `CC/C=C\CC(=O)C=C/C=C\C/C=C\C/C=C\CCCCCC(=O)O` [17-oxoDPA, 17-oxo-(7Z,10Z,13Z,15A,19Z)-docosa-7,10,13,15,19-pentanoic acid], in test [2], the Nrf2 nuclear accumulation result is “promoted dose-dependent; also recorded: promoting nuclear accumulation of Nrf2”; the “Expression of HO-1 and Nqo1” value is given as “promoted dose-dependent; also recorded: promoting”. Further, the “IFNγ and LPS-induced cytokine production” value in test [3] is “inhibited IFNγ and LPS-induced cytokine production in a dose-dependent manner”. Besides, the “Reduction of nitrite production” value in test [4] (25 μM) is listed as ~70%. Further, the “iNOS induction and accumulation of nitrite in the cell media” value in test [4] was “dose-dependent inhibition”. Moreover, the “Adduct formation with GAPDH residues” value in test [5] was “covalently bind Cys and His residues”.
Take `CC/C=C/C/C=C/C/C=C/C/C=C\C/C=C/C/C=C/CCC(=O)O` [DHA, (4E,7E,10Z,13E,16E,19E)-docosa-4,7,10,13,16,19-hexanoic acid]: in test [6], the “EFAD-1 formation after fatty acid supplementation” value is “increased” and the “EFAD-2 formation after fatty acid supplementation” value is on record as “did not increase”.
With `O=C(O)Cc1ccccc1Nc1c(Cl)cccc1Cl` [Diclofenac], the “Effect on EFAD formation (in words)” value in test [1] (setting [8]) is reported as “completely abolish”. For the same compound, in test [1] (20 h), the “Effect of inhibitor on EFAD-1 formation” value was “↓”, the “Effect of inhibitor on EFAD-2 formation” value is recorded as “↓”, the “Effect of inhibitor on EFAD-3 formation” value is “↓” and the “Effect of inhibitor on EFAD-4 formation” value is listed as “↓”. In addition, in test [1] (20 h), the “Effect of inhibitor on EFAD-5 formation” value was “↓” and the “Effect of inhibitor on EFAD-6 formation” value is reported as “↓”.
Consider `CC/C=C\C/C=C\C/C=C\C/C=C\C/C=C\CCCC(=O)O` [EPA, (5Z,8Z,11Z,14Z,17Z)-eicosa-5,8,11,14,17-pentanoic acid], for which the “EFAD-2 formation after fatty acid supplementation” value in test [6] is “significantly increased”.
For `CCCCCC#CCC#CCC#CCC#CCCCC(=O)O` [ETYA, Eicosatetraynoic acid], the “Effect on EFAD formation (in words)” value in test [1] (setting [8]) was “strongly inhibit”. Besides, in test [1] (20 h), the “Effect of inhibitor on EFAD-1 formation” value is “↓”, the “Effect of inhibitor on EFAD-2 formation” value was “↓”, the “Effect of inhibitor on EFAD-3 formation” value was “↓” and the “Effect of inhibitor on EFAD-4 formation” value is recorded as “↓”. Besides, in test [1] (20 h), the “Effect of inhibitor on EFAD-5 formation” value is given as “↓” and the “Effect of inhibitor on EFAD-6 formation” value is given as “↓”.
On to `COc1ccc2c(c1)c(CC(=O)O)c(C)n2C(=O)c1ccc(Cl)cc1` [Indomethacin], for which the “Effect on EFAD formation (in words)” value in test [1] (setting [8]) is listed as “completely abolish”. For the same compound, in test [1] (20 h), the “Effect of inhibitor on EFAD-1 formation” value is reported as “↓”, the “Effect of inhibitor on EFAD-2 formation” value is “↓”, the “Effect of inhibitor on EFAD-3 formation” value was “↓” and the “Effect of inhibitor on EFAD-4 formation” value is “↓”. Besides, in test [1] (20 h), the “Effect of inhibitor on EFAD-5 formation” value is listed as “↓” and the “Effect of inhibitor on EFAD-6 formation” value is recorded as “↓”.
Take `CC(C)c1ccc2c(c1)c(SC(C)(C)C)c(CC(C)(C)C(=O)O)n2Cc1ccc(Cl)cc1` [MK886]: the “Effect on EFAD formation (in words)” value in test [1] (setting [8]) is given as “no significant effect”.
Same read-out and setting: for `CS(=O)(=O)Nc1ccc([N+](=O)[O-])cc1OC1CCCCC1` [NS-398] the value was “abolished”.
Take `C=C1[C@@H](O)[C@@H]2O[C@]3(CC[C@H](/C=C/[C@@H](C)[C@@H]4CC(C)=C[C@@]5(O[C@H](C[C@@](C)(O)C(=O)O)CC[C@H]5O)O4)O3)CC[C@H]2O[C@@H]1[C@@H](O)C[C@H](C)[C@H]1O[C@@]2(CCCCO2)CC[C@H]1C` [OKA, okadaic acid]: in test [1], the “Effect on EFAD formation (in words)” value is recorded as “slight increase”.
In the case of `O=c1c(-c2ccc(O)cc2)coc2cc(O)cc(O)c12` [genistein], the inhibition at 25 µM in test [1] (setting [7]) was > 50%. For the same compound, in test [1] (20 h), the “Effect of inhibitor on EFAD-1 formation” value is listed as “↓”, the “Effect of inhibitor on EFAD-2 formation” value is “↓”, the “Effect of inhibitor on EFAD-3 formation” value is given as “↓” and the “Effect of inhibitor on EFAD-4 formation” value is recorded as “↓”. In test [1] (20 h), the “Effect of inhibitor on EFAD-5 formation” value is on record as “↓” and the “Effect of inhibitor on EFAD-6 formation” value is listed as “↓”.
Turning to `CC/C=C\C/C=C\C/C=C\CCCCCCCC(=O)O` [α-linolenic acid], the “EFAD-2 formation after fatty acid supplementation” value in test [6] was “significantly increased”.
